Experiments:
complementary DNA = experiment: Melting temperature of PNA-DNA complexes (thermal denaturation); format: binding; conditions: for Tm: PNA bound to complementary DNA; for ΔTm: increase over aegPNA 1a-DNA duplex
From the text: Although the stabilizing effect of tetrahydrofuran for PNA-DNA duplex is slightly lower than that of cyclopentane (3d vs 9 and 2a, Table 2), it strikes a balance between water solubility and binding properties and, therefore the combination of those two backbone modifications could be tailor-made to meet the specific requirements.

[1] = test system: DNA with a single base mismatch; experiment: Discrimination of single base mismatches (Tm of mismatched PNA-DNA duplex); format: binding; conditions: for ΔTm (Tm), TC mismatch: number in brackets / ΔTm (Tm), TG mismatch: number in brackets / ΔTm (Tm), TT mismatch: number in brackets: against fully matched duplex; for ΔTm (Tm), TC mismatch: number before the brackets / ΔTm (Tm), TG mismatch: number before the brackets / ΔTm (Tm), TT mismatch: number before the brackets: PNA-DNA duplex with single base mismatch
From the text: The sequence specificity of thyclotide 3d was examined by determining the change in Tm of a PNA-DNA duplex when a single base mismatch is present. […] The large differences in melting temperature between matched PNA-DNA duplex and mismatch PNA-DNA of thyclotide 3d allows one to control hybridization conditions to exclude the formation of mismatched PNA-DNA by adjust the temperature. Such enhanced single base pair mismatch-discrimination capability could make thyclotide 3d become a powerful tool for the detection of point-mutations and single nucleotide polymorphisms (SNPs).

[2] = CD spectra, conformation of PNA; format: physicochemical
Procedure: The CD spectra of thyclotides 3a-3d were measured. […] However, in the case of thyclotides 3a-3d, distinct distinctive positive peaks around 220 and 269 nm and negative peaks around 204 and 247 nm were noticed. […] The amplitude of the cotton effects increases as more tetrahydrofuran modifications are introduced.

| Substance | Tm (complementary DNA) [°C] | ΔTm (complementary DNA) [°C] | ΔTm (Tm), TC mismatch: number in brackets [1] | ΔTm (Tm), TG mismatch: number in brackets [1] | ΔTm (Tm), TT mismatch: number in brackets [1] | ΔTm (Tm), TC mismatch: number before the brackets [1] | ΔTm (Tm), TG mismatch: number before the brackets [1] | ΔTm (Tm), TT mismatch: number before the brackets [1] | difference in melting temperature between fully matched duplex and duplex with a single base mismatch (ΔTm), in words ([1]; compared with aegPNA, tcypPNA 2a and mixPNA 9) | CD spectrum / conformation [2] |
| --- | --- | --- | --- | --- | --- | --- | --- | --- | --- | --- |
| G#A#T#G#T#G#A#T#A#-AEEA [2a, reference compound] | 93.7 | 51.7 | −30.6 | −20.6 | −22.8 | – | – | – | – | – |
| GAT*GT*GAT*A-AEEA [3c] | 54.9 | 12.9 | – | – | – | – | – | – | – | – |
| GAT*GTGAT*A-AEEA [3b] | 49.7 | 7.7 | – | – | – | – | – | – | – | – |
| GATGT*GATA-AEEA [3a] | 44.7 | 2.7 | – | – | – | – | – | – | – | – |
| G*A*T*G#T#G#A*T*A*-AEEA [compound 9] | 84.5 | 42.5 | −27.4 | −20.3 | −19.5 | 57.7 | – | – | – | – |
| G*A*T*G*T*G*A*T*A*-AEEA [3d] | 77 | 35 | −26.2 | −21.4 | −18.8 | 50.7 | 55.6 | 58.2 | significantly higher than that of the corresponding aegPNA | – |
| GATGTGATA-AEEA [1a, reference compound] | 42.0 | – | −19.2 | −16.6 | −13.8 | 22.9 | 25.4 | 28.2 | – | does not show any distinct peaks |

From US20230242587A1, “THYCLOTIDES” (The United States of America,as represented by the …, priority 2020, published 2023)
